# Experimental data published in US9012502B2, “Cancer heat therapy-enhancing agent” (SBI Pharmaceuticals Co., Ltd., priority 2010, dated 2015).
# Legend:
# [1] = system: human normal diploid fibroblast line WI-38; experiment: Hyperthermia sensitivity test using trypan blue reagent; type: cell-based; conditions: normal cells WI-38, 42° C.
# Description: (§1) A colon cancer-derived cell line Caco-2, a human hepatoma-derived cell line HepG2, a human gastric cancer-derived cell line KatoIII, and a human cervical cancer-derived cell line HeLa were used as cancer cell lines. A human embryonic kidney cell line HEK293 was used as cells transformed so as to overgrow like cancer cells. A human normal diploid fibroblast line WI-38, a murine fibroblast-like cell line NIH3T3, and a human embryonic lung-derived normal fibroblast MRCS were used as normal cells. Each of these cells was cultured at 37 or 42° C. for 24 hours in a DME medium containing 10% FBS and 5-ALA at a concentration of 0, 0.5, 1, or 2 mM, and treated with trypsin for cell harvest. Then, equal volumes of the harvested cell-containing solution and a trypan blue reagent were mixed, and the number of the cells was counted with a hemocytometer to calculate the fraction of dead cells (cells stained with trypan blue) (%; percent cell death).
# [2] = system: human embryonic kidney cell line HEK293; experiment: as above; type: cell-based; conditions: for fraction of dead cells (%), increase compared with 5-ALA-free cells: 42° C.
# Description: as §1
# [3] = system: colon cancer-derived cell line Caco-2; experiment: as above; type: cell-based; conditions: for fraction of dead cells (%), increase compared with 5-ALA-free cells: 42° C.
# Description: as §1
# [4] = system: human fibrosarcoma cell line HT-1080; experiment: Hyperthermia sensitivity test using flow cytometry; type: cell-based; conditions: for fraction of dead cells (%), increase compared with 5-ALA-free cells: 42° C.
# Protocol: (§2) To investigate what kind of effect the addition of 5-ALA could exert on hyperthermia sensitivity of cancer cells, a hyperthermia sensitivity test was performed using a flow cytometry technique as follows.
# (§3) First, a human fibrosarcoma cell line HT-1080 and a colon cancer-derived cell line Caco-2 were prepared as cancer cell lines, and a human fibroblast line WI-38 and a murine fibroblast line NIH3T3 were prepared as normal cell lines. Also, prepared was a human embryonic kidney cell line HEK293 transformed so as to overgrow like cancer cells. These cells were cultured at 37° C. for 24 hours in 10% FBS-containing DME medium, and split into 8 groups. Next, the medium was replaced by an FBS-free DME medium. Then, 5-aminolevulinic acid (5-ALA) was added to each group at a final concentration of 0.5 mM, 1.0 mM, or 2.0 mM, and cultured at 37° C. for 2 hours. After that, 10% FBS was added, and the resulting cell groups were incubated […] for 24 hours. In addition, 5-ALA-free cell groups were likewise incubated at 37 or 42° C. for 24 hours. All the above culture processes were conducted in the dark, so that an ultraviolet light, visible light, infrared light, or radiation, etc., was never used for irradiation.
# (§4) With regard to the fraction of dead cells, a total number of cells having apoptosis and necrosis was counted, and a ratio of the total number to the number of all cells was calculated. […] Of note is little enhancement of the cell death-inducing effect in normal cells.
# [5] = system: human embryonic kidney cell line HEK293 transformed so as to overgrow like cancer cells; experiment: Hyperthermia sensitivity test using flow cytometry; type: cell-based; conditions: for fraction of dead cells (%), increase compared with 5-ALA-free cells: 42° C.
# Protocol: as §2, §3, §4
# [6] = system: human fibroblast line WI-38; experiment: Hyperthermia sensitivity test using flow cytometry; type: cell-based; conditions: normal cells WI-38, 42° C.
# Protocol: as §2, §3, §4
# [7] = system: murine fibroblast line NIH3T3; experiment: Hyperthermia sensitivity test using flow cytometry; type: cell-based; conditions: normal cells NIH3T3, 42° C.
# Protocol: as §2, §3, §4
# [8] = system: colon cancer-derived cell line Caco-2; experiment: Hyperthermia sensitivity test using flow cytometry; type: cell-based; conditions: for fraction of dead cells (%), increase compared with 5-ALA-free cells: 42° C.
# Protocol: as §2, §3, §4
# HEK293 cells = experiment: Assay for intracellular reactive oxygen species (DCF-DA, flow cytometry); type: cell-based, human; conditions: for fluorescence peak value derived from DCF-DA: 42° C. (5-ALA-free cells 244); for level of intracellular reactive oxygen species, increase compared with 5-ALA-free cells: 42° C. for 24 hours, in the dark; for level of intracellular reactive oxygen species (in words): 0.5-2.0 mM 5-ALA
# Description: To investigate what kind of effect 5-aminolevulinic acids according to the present invention could exert on a level of intracellular reactive oxygen species during thermotherapy, human embryonic kidney-derived HEK293 cells and a DCF-DA fluorescent reagent (2′,7′-dichlorodihydrofluorescein diacetate; H2DCFDA) were used to perform an assay for measuring a level of intracellular reactive oxygen species. Note that this assay uses characteristics as follows. Cell-permeable H2DCFDA remains a non-fluorescent substance until it is oxidized in the cytoplasm of a viable cell. Once it enters the viable cell, its diacetate group is cleaved by an intracellular esterase. Then, the resulting molecule is further oxidized by reactive oxygen species to emit fluorescence. The higher the measured fluorescence level, the higher the level of intracellular reactive oxygen species. This assay was performed using the following procedure.
# First, HEK293 cells were cultured at 37° C. for 24 hours in 10% fetal bovine serum (FBS)-containing Dulbecco's Modified Eagle (DME) medium. The cells were split into 8 groups. Next, the medium was replaced by an FBS-free DME medium. Then, 5-aminolevulinic acid (5-ALA) was added to each group at a final concentration of 0.5 mM, 1.0 mM, or 2.0 mM, and cultured at 37° C. for 2 hours. After that, 10% FBS was added, and the resulting HEK293 cells were incubated at 37 or 42° C. for 24 hours. In addition, 5-ALA-free HEK293 cells were likewise incubated at 37 or 42° C. for 24 hours. All the above culture processes were conducted in the dark, so that an ultraviolet light, visible light, infrared light, or radiation, etc., was never used for irradiation.
# Furthermore, to each group of the HEK293 cells was added a DCF-DA fluorescent reagent (manufactured by Sigma-Aldrich Corporation) at a final concentration of 20 μM. The resulting mixture was incubated for 30 minutes. Then, fluorescence (FL1: green fluorescence) derived from the DCF-DA was measured for each group by flow cytometry (FACSCalibur, manufactured by Becton, Dickinson and Company). […] More specifically, when 0.5 mM of 5-ALA was added at an incubation temperature of 42° C., the level of intracellular reactive oxygen species was increased by 1.23 times (300/244) compared with that of the 5-ALA-free cells. When 1.0 mM of 5-ALA was added, the level of intracellular reactive oxygen species was increased by 1.34 times (326/244). When 2.0 mM of 5-ALA was added, the level of intracellular reactive oxygen species was increased by 1.42 times (346/244).
compound,measurement,setting,value
"NCC(=O)CCC(=O)O [5-ALA, 5-aminolevulinic acid]",increase in the fraction of dead cells depending on the 5-ALA concentration (in words),[1],no increase
same,"fraction of dead cells (%), increase compared with 5-ALA-free cells","[2]; HEK293, 0.5 mM 5-ALA",about 1.6 times
same,"fraction of dead cells (%), increase compared with 5-ALA-free cells","[2]; HEK293, 1.0 mM 5-ALA",about 2.0 times
same,"fraction of dead cells (%), increase compared with 5-ALA-free cells","[2]; HEK293, 2.0 mM 5-ALA",about 3.5 times
same,fraction of dead cells (in words),"[2]; HEK293, 37° C., each concentration of 5-ALA",did not increase
same,fraction of dead cells (in words),"[2]; HEK293, 42° C.",markedly increased depending on the 5-ALA concentration
same,"fraction of dead cells (%), increase compared with 5-ALA-free cells","[3]; Caco-2, 0.5 mM 5-ALA",about 1.2 times
same,"fraction of dead cells (%), increase compared with 5-ALA-free cells","[3]; Caco-2, 1.0 mM 5-ALA",about 1.7 times
same,"fraction of dead cells (%), increase compared with 5-ALA-free cells","[3]; Caco-2, 2.0 mM 5-ALA",about 1.6 times
same,fraction of dead cells (in words),"[3]; Caco-2, 37° C., each concentration of 5-ALA",did not increase
same,fraction of dead cells (in words),"[3]; Caco-2, 42° C.",markedly increased depending on the 5-ALA concentration
same,"fraction of dead cells (%), increase compared with 5-ALA-free cells","[4]; HT-1080, 0.5 mM 5-ALA",about 1.7 times
same,"fraction of dead cells (%), increase compared with 5-ALA-free cells","[4]; HT-1080, 1.0 mM 5-ALA",about 1.5 times
same,"fraction of dead cells (%), increase compared with 5-ALA-free cells","[4]; HT-1080, 2.0 mM 5-ALA",about 2.3 times
same,fraction of dead cells (in words),"[4]; HT-1080, 37° C.",somewhat increased
same,fraction of dead cells (in words),"[4]; HT-1080, 42° C.",increase markedly
same,"fraction of dead cells (%), increase compared with 5-ALA-free cells","[5]; HEK293, 0.5 mM 5-ALA",about 3.2 times
same,"fraction of dead cells (%), increase compared with 5-ALA-free cells","[5]; HEK293, 1.0 mM 5-ALA",about 4.8 times
same,"fraction of dead cells (%), increase compared with 5-ALA-free cells","[5]; HEK293, 2.0 mM 5-ALA",about 6.0 times
same,fraction of dead cells (in words),"[5]; HEK293, 37° C.",somewhat increased
same,fraction of dead cells (in words),"[5]; HEK293, 42° C.",increase markedly
same,5-ALA concentration-dependent cell death (in words),[6],not enhanced
same,5-ALA concentration-dependent cell death (in words),[7],not enhanced
same,"fraction of dead cells (%), increase compared with 5-ALA-free cells","[8]; Caco-2, 0.5 mM 5-ALA",about 2.1 times
same,"fraction of dead cells (%), increase compared with 5-ALA-free cells","[8]; Caco-2, 1.0 mM 5-ALA",about 2.0 times
same,"fraction of dead cells (%), increase compared with 5-ALA-free cells","[8]; Caco-2, 2.0 mM 5-ALA",about 1.9 times
same,fraction of dead cells (in words),"[8]; Caco-2, 37° C.",somewhat increased
same,fraction of dead cells (in words),"[8]; Caco-2, 42° C.",increase markedly
same,fluorescence peak value derived from DCF-DA,HEK293 cells; 0.5 mM 5-ALA,300
same,"level of intracellular reactive oxygen species, increase compared with 5-ALA-free cells",HEK293 cells; 0.5 mM 5-ALA,1.23 times
same,fluorescence peak value derived from DCF-DA,HEK293 cells; 1.0 mM 5-ALA,326
same,"level of intracellular reactive oxygen species, increase compared with 5-ALA-free cells",HEK293 cells; 1.0 mM 5-ALA,1.34 times
same,fluorescence peak value derived from DCF-DA,HEK293 cells; 2.0 mM 5-ALA,346
same,"level of intracellular reactive oxygen species, increase compared with 5-ALA-free cells",HEK293 cells; 2.0 mM 5-ALA,1.42 times
same,level of intracellular reactive oxygen species (in words),HEK293 cells; incubation temperature 37° C.,somewhat increased
same,level of intracellular reactive oxygen species (in words),HEK293 cells; incubation temperature 42° C.,markedly increased
